biological target: T1, human MCH receptor 1 (MCHR1) (Homo sapiens, UniProt Q99705); experiment: human MCH receptor 1 (MCHR1) competitive binding assay with [125I]-MCH(4-19); settings: test compound 0.1 μM, human MCHR1-expressing CHO cell membrane fraction, 0.1 µM
T1 construct: expressed in transfected cells; host or cells: CHO cell clone 57 (membrane fraction)
Protocol: Determination of human MCH receptor 1 (MCHR1) competitive inhibitory activity of test compound using binding assay
1. Preparation of Membrane Fraction
Using human MCHR1 (=SLC-1 receptor)-expressing CHO cell clone 57 described in WO01/82925, MCHR1-expressing CHO cell membrane fractions were prepared by the following method.
In phosphate buffered saline (pH 7.4) supplemented with 5 mM EDTA (ethylenediaminetetraacetic acid) were respectively suspended human MCHR1-expressing CHO cells (1×10^8 cells) and centrifuged. Homogenate buffer (10 mL, 10 mM NaHCO3, 5 mM EDTA, pH 7.5, 0.5 mM PMSF (phenylmethylsulfonyl fluoride), 20 mg/L leupeptin, 4 mg/L E-64, 1 mg/L pepstatin A) was added to the pellets of the cells and, using Polytron Homogenizer, the mixture was homogenated. The supernatant obtained after centrifugation at 400×g for 10 min was further centrifuged at 100,000×g for 1 hr to give precipitate of the membrane fraction. The precipitate were suspended in 2 mL of assay buffer [20 mM Tris-HCl (pH 7.5), 5 mM EDTA, 0.5 mM PMSF, 20 mg/L leupeptin, 4 mg/L E-64, 1 mg/L pepstatin A]. The membrane fractions were suspended in assay buffer to a protein concentration of 2 mg/mL, and after dispensing, preserved at −80° C. and used upon thawing each time when in use.
The MCHR1 ligand binding inhibitory activity of the test compound was determined as follows.
An MCHR1-expressing CHO cell membrane fraction (173 μL) diluted with an assay buffer was dispensed to a 96 well polypropylene plate (3363, Corning). DMSO solution (2 μL), 33 μM cold MCH(1-19) diluted with DMSO solution (2 μL), or a test compound solution diluted with DMSO solution to various concentrations (2 μL) was added, and lastly, [^125I]-MCH (4-19) diluted with assay buffer (hereinafter, sometimes to be referred to as “hot MCH”, 25 μL) was added to each well. The mixture was reacted with stirring at room temperature for 1 hr, and the plate was set on FilterMate Harvester (PerkinElmer). Using a treating glass filter plate (GF/C, PerkinElmer) with polyethyleneimine, which had been previously set, the plate was suction-filtered and washed three times with washing buffer (50 mM Tris-HCl buffer pH 7.5). The glass filter plate was dried, MicroScinti0 (PerkinElmer) was added at 25 μL/well, and the resulting radioactivity was measured by TopCount liquid scintillation counter (PerkinElmer). The binding inhibition rate of the test compound was calculated by the following formula. Binding inhibition (%)=100−(radioactivity upon addition of test compound and hot MCH−radioactivity upon addition of cold MCH and hot MCH solution)/(radioactivity upon addition of DMSO solution and hot MCH−radioactivity upon addition of cold MCH and hot MCH solution)×100
The binding inhibition rates (%) of test compounds (0.1 μM) as measured using human MCHR1-expressing CHO cell are shown in Table 2.

T1 sequence (Q99705 whole entry): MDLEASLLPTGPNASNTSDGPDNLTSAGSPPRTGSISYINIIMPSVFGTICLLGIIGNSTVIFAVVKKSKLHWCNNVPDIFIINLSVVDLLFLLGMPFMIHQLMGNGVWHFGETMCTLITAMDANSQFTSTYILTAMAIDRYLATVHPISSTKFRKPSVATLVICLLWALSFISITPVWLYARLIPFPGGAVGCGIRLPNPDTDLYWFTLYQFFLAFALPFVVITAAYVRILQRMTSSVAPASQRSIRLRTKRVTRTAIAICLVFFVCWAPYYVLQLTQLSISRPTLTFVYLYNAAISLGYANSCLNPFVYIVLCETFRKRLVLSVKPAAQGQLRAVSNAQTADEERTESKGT

Row | Binding inhibition rate % (0.1 μM) [%] | SMILES
1 | 68 | Cn1c([C@H]2C[C@@H]2F)nc2ccc(-n3ccc(OCc4ccc(Cl)cc4)cc3=O)cc21 (racemic) [Example 137, 4-((4-Chlorobenzyl)oxy)-1-(2-((1RS,2SR)-2-fluorocyclopropyl)-1-methyl-1H-benzimidazol-6-yl)pyridin-2(1H)-one]

same assay, conditions: test compound 0.1 μM, human MCHR1-expressing CHO cell membrane fraction, read-out: Binding inhibition rate % (0.1 μM)

Row | SMILES | inhibition at 0.1 µM [%]
2 | Cc1c(C2CC2)nc2ccc(-n3ccc(OCc4ccc(Cl)cn4)cc3=O)cn12 [Example 32, 4-((5-Chloropyridin-2-yl)methoxy)-1-(2-cyclopropyl-3-methylimidazo[1,2-a]pyridin-6-yl)pyridin-2(1H)-one] | 83
3 | Cc1c(C2CC2)nc2ccc(-n3ccc(OCc4ccc(F)c(F)c4)cc3=O)cn12 [Example 146, 1-(2-Cyclopropyl-3-methylimidazo[1,2-a]pyridin-6-yl)-4-((3,4-difluorobenzyl)oxy)pyridin-2(1H)-one] | 77
4 | Cc1nc2ccc(-n3ccc(OCc4ccc(F)cc4)cc3=O)cn2c1C [Example 162, 1-(2,3-Dimethylimidazo[1,2-a]pyridin-6-yl)-4-((4-fluorobenzyl)oxy)pyridin-2(1H)-one] | 57
5 | Cc1c(C2CC2)nc2ccc(-n3ccc(OCc4ccc(Cl)s4)cc3=O)cn12 [Example 139, 4-((5-Chloro-2-thienyl)methoxy)-1-(2-cyclopropyl-3-methylimidazo[1,2-a]pyridin-6-yl)pyridin-2(1H)-one] | 88
6 | CCc1nc2ccc(-n3ccc(OCc4ccc(Cl)c(F)c4)cc3=O)cc2n1C [Example 229, 4-((4-Chloro-3-fluorobenzyl)oxy)-1-(2-ethyl-1-methyl-1H-benzimidazol-6-yl)pyridin-2(1H)-one] | 45
7 | Cc1c(C2CC2)nc2ccc(-n3ccc(OCc4ccc(C(F)(F)F)cc4)cc3=O)cn12 [Example 5, 1-(2-Cyclopropyl-3-methylimidazo[1,2-a]pyridin-6-yl)-4-((4-(trifluoromethyl)benzyl)oxy)pyridin-2(1H)-one] | 58
8 | Cc1ocnc1-c1nc2ccc(-n3ccc(OCc4ccc(F)cc4)cc3=O)cc2n1C [Example 145, 4-((4-Fluorobenzyl)oxy)-1-(1-methyl-2-(5-methyl-1,3-oxazol-4-yl)-1H-benzimidazol-6-yl)pyridin-2(1H)-one] | 52
9 | CCc1nc2ccc(-n3ccc(OCc4ccc(F)s4)cc3=O)cc2n1C [Example 246, 1-(2-Ethyl-1-methyl-1H-benzimidazol-6-yl)-4-((5-fluorothiophen-2-yl)methoxy)pyridin-2(1H)-one] | 52
10 | Cc1c(C2CC2C#N)nc2ccc(-n3ccc(OCc4ccc(Cl)cc4)cc3=O)cn12 (centres unmarked) [Example 174, 2-(6-(4-((4-Chlorobenzyl)oxy)-2-oxopyridin-1(2H)-yl)-3-methylimidazo[1,2-a]pyridin-2-yl)cyclopropanecarbonitrile] | 45
11 | CCn1c(C2CC2)nc2ccc(-n3ccc(OCc4ccc(Cl)cc4)cc3=O)cc21 [Example 21, 4-((4-Chlorobenzyl)oxy)-1-(2-cyclopropyl-1-ethyl-1H-benzimidazol-6-yl)pyridin-2(1H)-one] | 76
12 | CCc1nc2ccc(-n3ccc(OCc4ccc(C(F)(F)F)s4)cc3=O)cc2n1C [Example 233, 1-(2-Ethyl-1-methyl-1H-benzimidazol-6-yl)-4-((5-(trifluoromethyl)-2-thienyl)methoxy)pyridin-2(1H)-one] | 67
13 | Cc1c(C2CC2)nc2ccc(-n3ccc(OCc4csc(C(F)F)c4)cc3=O)cn12 [Example 184, 1-(2-Cyclopropyl-3-methylimidazo[1,2-a]pyridin-6-yl)-4-((5-(difluoromethyl)-3-thienyl)methoxy)pyridin-2 (1H)-one] | 82

Next, values leading:

Row | inhibition at 0.1 µM [%] | SMILES
14 | 76 | Cn1c([C@@H]2C[C@@H]2C(C)(C)O)nc2ccc(-n3ccc(OCc4ccc(F)cc4)cc3=O)cc21 (racemic) [Example 205, 4-((4-Fluorobenzyl)oxy)-1-(2-((1RS,2SR)-2-(2-hydroxypropan-2-yl)cyclopropyl)-1-methyl-1H-benzimidazol-6-yl)pyridin-2(1H)-one]
15 | 55 | CCCn1c(C2CC2)nc2ccc(-n3ccc(OCc4ccc(Cl)cc4)cc3=O)cc21 [Example 27, 4-((4-Chlorobenzyl)oxy)-1-(2-cyclopropyl-1-propyl-1H-benzimidazol-6-yl)pyridin-2(1H)-one]
16 | 54 | Cn1c([C@@H]2C[C@@H]2C(C)(C)F)nc2ccc(-n3ccc(OCc4ccccc4)cc3=O)cc21 (racemic) [Example 155, 4-(Benzyloxy)-1-(2-((1RS,2SR)-2-(2-fluoropropan-2-yl)cyclopropyl)-1-methyl-1H-benzimidazol-6-yl)pyridin-2(1H)-one]
17 | 91 | Cn1c([C@@H]2C[C@@H]2C(C)(C)O)nc2ccc(-n3ccc(OCc4ccc(Cl)s4)cc3=O)cc21 (racemic) [Example 203, 4-((5-Chloro-2-thienyl)methoxy)-1-(2-((1RS,2SR)-2-(2-hydroxypropan-2-yl)cyclopropyl)-1-methyl-1H-benzimidazol-6-yl)pyridin-2(1H)-one]
18 | 60 | Cn1c([C@@H]2CC[C@@H]2C(C)(C)O)nc2ccc(-n3ccc(OCc4ccc(Cl)cc4)cc3=O)cc21 (racemic) [Example 223, 4-((4-Chlorobenzyl)oxy)-1-(2-((1RS,2SR)-2-(2-hydroxypropan-2-yl)cyclobutyl)-1-methyl-1H-benzimidazol-6-yl)pyridin-2(1H)-one]
19 | 55 | Cn1c([C@@H]2C[C@@H]2CO)nc2ccc(-n3ccc(OCc4ccc(Cl)cc4)cc3=O)cc21 (racemic) [Example 149, 4-((4-Chlorobenzyl)oxy)-1-(2-((1RS,2SR)-2-(hydroxymethyl)cyclopropyl)-1-methyl-1H-benzimidazol-6-yl)pyridin-2(1H)-one]
20 | 92 | Cn1c([C@@H]2C[C@@H]2C(C)(C)O)nc2ccc(-n3ccc(OCc4csc(Cl)c4)cc3=O)cc21 (racemic) [Example 215, 4-((5-Chloro-3-thienyl)methoxy)-1-(2-((1RS,2SR)-2-(2-hydroxypropan-2-yl)cyclopropyl)-1-methyl-1H-benzimidazol-6-yl)pyridin-2(1H)-one]
21 | 71 | COc1ccc(COc2ccn(-c3ccc4nc(C5CC5)n(C)c4c3)c(=O)c2)cc1 [Example 77, 1-(2-Cyclopropyl-1-methyl-1H-benzimidazol-6-yl)-4-((4-methoxybenzyl)oxy)pyridin-2(1H)-one]
22 | 73 | Cn1c(C2CC2)nc2ccc(-n3ccc(OCc4ccsc4F)cc3=O)cc21 [Example 217, 1-(2-Cyclopropyl-1-methyl-1H-benzimidazol-6-yl)-4-((2-fluoro-3-thienyl)methoxy)pyridin-2(1H)-one]
23 | 69 | Cc1ccc(COc2ccn(-c3ccc4nc(C5CC5)n(C)c4c3)c(=O)c2)cc1 [Example 142, 1-(2-Cyclopropyl-1-methyl-1H-benzimidazol-6-yl)-4-((4-methylbenzyl)oxy)pyridin-2(1H)-one]
24 | 80 | Cn1c([C@@H]2C[C@@H]2C(C)(C)O)nc2ccc(-n3ccc(OCc4ccc(F)c(Cl)c4)cc3=O)cc21 (racemic) [Example 222, 4-((3-Chloro-4-fluorobenzyl)oxy)-1-(2-((1RS,2SR)-2-(2-hydroxypropan-2-yl)cyclopropyl)-1-methyl-1H-benzimidazol-6-yl)pyridin-2(1H)-one]
25 | 80 | Cn1c([C@@H]2C[C@@H]2C(C)(C)O)nc2ccc(-n3ccc(OCc4ccc(F)c(F)c4)cc3=O)cc21 (racemic) [Example 212, 4-((3,4-Difluorobenzyl)oxy)-1-(2-((1RS,2SR)-2-(2-hydroxypropan-2-yl)cyclopropyl)-1-methyl-1H-benzimidazol-6-yl)pyridin-2(1H)-one]
26 | 58 | Cn1c(C2CC2)nc2ccc(-n3ccc(OCc4ccsc4Cl)cc3=O)cc21 [Example 221, 4-((2-Chloro-3-thienyl)methoxy)-1-(2-cyclopropyl-1-methyl-1H-benzimidazol-6-yl)pyridin-2(1H)-one]
